We go through 18 compounds from patent US11053190B2, “Alpha-aminoamide derivative compound and pharmaceutical composition comprising same” (NEUROBIOGEN CO., LTD., priority 2014, dated 2021).

Like-named read-outs stand apart in the source and are kept apart here. A value given as a limit tells only on which side of the number the result lay.

The target in experiment [1] is T1, human-derived monoamine oxidase B (Homo sapiens, UniProt P27338).
T1 sequence (P27338 1-520): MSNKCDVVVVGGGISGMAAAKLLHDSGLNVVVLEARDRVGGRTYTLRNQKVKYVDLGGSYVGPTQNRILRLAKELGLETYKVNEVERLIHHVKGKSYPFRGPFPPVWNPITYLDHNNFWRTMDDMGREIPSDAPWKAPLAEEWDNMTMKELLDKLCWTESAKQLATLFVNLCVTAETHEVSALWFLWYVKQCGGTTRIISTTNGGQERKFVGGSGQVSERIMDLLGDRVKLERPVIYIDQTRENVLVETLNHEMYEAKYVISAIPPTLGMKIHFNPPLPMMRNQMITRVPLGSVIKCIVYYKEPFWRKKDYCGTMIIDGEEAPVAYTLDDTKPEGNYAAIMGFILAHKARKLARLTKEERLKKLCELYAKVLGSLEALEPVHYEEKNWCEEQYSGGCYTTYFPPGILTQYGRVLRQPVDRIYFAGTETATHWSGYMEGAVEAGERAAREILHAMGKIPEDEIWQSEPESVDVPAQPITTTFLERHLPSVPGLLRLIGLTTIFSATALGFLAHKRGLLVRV
Nature of the experiment: Effect of inhibiting activity of monoamine oxidase B (MAO-B assay). The experiment is classed as biochemical. As to conditions: Amplex Red, benzylamine substrate.

Experiment [2] deals with T2, MAO-A (Homo sapiens, UniProt P21397).
T2 sequence (P21397 1-527): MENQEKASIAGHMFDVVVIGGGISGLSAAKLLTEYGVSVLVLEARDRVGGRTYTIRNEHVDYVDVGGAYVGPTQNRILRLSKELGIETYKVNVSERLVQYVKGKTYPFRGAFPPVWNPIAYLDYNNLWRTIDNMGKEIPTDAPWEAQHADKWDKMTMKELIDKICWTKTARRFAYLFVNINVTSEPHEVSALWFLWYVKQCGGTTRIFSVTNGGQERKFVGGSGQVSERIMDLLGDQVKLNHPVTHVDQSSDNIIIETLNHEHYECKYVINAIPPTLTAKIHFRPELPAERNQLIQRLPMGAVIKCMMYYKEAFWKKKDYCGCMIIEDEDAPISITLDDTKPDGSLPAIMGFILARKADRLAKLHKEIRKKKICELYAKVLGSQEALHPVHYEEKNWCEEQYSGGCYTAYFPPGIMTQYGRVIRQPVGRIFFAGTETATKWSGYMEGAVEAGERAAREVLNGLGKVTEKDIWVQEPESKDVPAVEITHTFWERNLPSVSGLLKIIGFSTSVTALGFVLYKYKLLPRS
Nature of the experiment: MAO-A inhibition (Table 1). The experiment is classed as biochemical.

Experiment [3] has as its system dopaminergic neurons in the substantia nigra and the corpus striatum. Nature of the experiment: MPTP mouse model of Parkinson's disease, TH (tyrosine hydroxylase) immunohistochemistry. The experiment is classed as in vivo. Particulars: for dopaminergic neuron survivability (TH expression), pre-treatment: from one day before MPTP 20 mg/kg i.p., FIG. 2a.
For experiment [4], the system named is APP/PS1 mouse. Nature of the experiment: APP/PS1 mouse model of Alzheimer's disease, spike probability of dentate gyrus granule cells. The experiment is classed as in vivo. As to conditions: 2 weeks in drinking water.
Experiment [5] concerns DGGCs (dentate gyrus granule cells) of the hippocampus. Nature of the experiment: Inhibition of channel excitability, electrophysiology. Particulars: FIG. 4. The experiment is classed as cell-based. The text has this: In order to investigate the channel inhibitory effect, inhibition of channel excitability was investigated electrophysiologically using DGGCs (dentate gyrus granule cells) of the hippocampus.

Experiment [6] concerns the target T1, human-derived monoamine oxidase B. As to the kind of experiment: Confirmation of reversible inhibitory effect (washing in centrifugal filter). The experiment is classed as biochemical.
Experiment [7] relates to obesity model mouse. Nature of the experiment: HFD (high-fat diet) mouse model of obesity. Type of experiment: in vivo. Here is the method:
7-week-old mice were divided into 2 groups and were given a normal diet (white, chow) and a high-fat diet (blue, HFD), respectively, for 8 weeks.
The total calorie provided to the normal diet mice and the high-fat diet mice was set to be equal. The average body weight of the normal diet group was measured to be […] at 8 weeks, with about 20% increase from the initial weight of […]. In contrast, the average body weight of the high-fat diet almost doubled to about […].
In addition to the increase in reactive astrocytes, overproduction of γ-aminobutyric acid (GABA) was also detected.

In experiment [8] the test system is APP/PS1 mouse. As to conditions: Jo et al., Nature Medicine 2014, cited from earlier work.
The mark [9] stands for this setting: 10 mg/kg oral, treated from day 3 after MPTP, FIG. 2b.
The mark [10] stands for this setting: administration for 30 days, FIG. 2c.

A word on the IC50: it is the midpoint of a concentration-inhibition curve. `C[C@H](NCc1ccc(-c2ccccc2F)cc1)C(N)=O` [Example 1, (S)-2-(((2′-fluorobiphenyl-4-yl)methyl)amino) propanamide methanesulfonate] yielded an IC50 in experiment [1] above 10 µM.

Compound `C[C@H](NCc1ccc(-c2cccc(F)c2)cc1)C(N)=O` [Example 2, (S)-2-(((3′-fluorobiphenyl-4-yl)methyl)amino) propanamide methanesulfonate] registered an IC50 in experiment [1] above 10 µM.

As to `C[C@H](NCc1ccc(-c2ccc(F)cc2)cc1)C(N)=O` [Example 3, (S)-2-(((4′-fluorobiphenyl-4-yl)methyl)amino) propanamide methanesulfonate], in experiment [1], the IC50 was above 10 µM.

Consider `C[C@H](NCc1ccc(-c2ccccc2Cl)cc1)C(N)=O` [Example 4, (S)-2-(((2′-chlorobiphenyl-4-yl)methyl)amino) propanamide methanesulfonate], for which the IC50 is above 100 µM in experiment [2] and above 10 µM in experiment [1].

Take `C[C@H](NCc1ccc(-c2cccc(Cl)c2)cc1)C(N)=O` [Example 5, (S)-2-(((3′-chlorobiphenyl-4-yl)methyl)amino) propanamide methanesulfonate]: the IC50 was above 100 µM in experiment [2] and 0.442 µM in experiment [1].

`C[C@H](NCc1ccc(-c2ccc(Cl)cc2)cc1)C(N)=O` [Example 6, (S)-2-(((4′-chlorobiphenyl-4-yl)methyl)amino) propanamide methanesulfonate]: the 50% inhibitory concentration (IC50) in experiment [2] is above 100 µM; in experiment [1], 0.416 µM.

Regarding `C[C@H](NCc1ccc(-c2ccc(C(F)(F)F)cc2)cc1)C(N)=O` [Example 9, (S)-2-(((4′-trifluoromethylbiphenyl-4-yl)methyl)amino) propanamide methanesulfonate], the “dopaminergic neuron survivability (TH expression), pre-treatment” value in experiment [3] (10 mg/kg oral) is listed as “dopaminergic neuron survivability comparable to that of the control group”. Besides, the “death of dopaminergic neurons, post-treatment” value in experiment [3] (setting [9]) was “significantly decreased death of the neurons”. In experiment [3] (10 mg/kg oral, treated from day 3 after MPTP, substantia nigra, FIG. 2b), the “recovery of dopaminergic neurons in the substantia nigra, post-treatment” value is given as “recovered the dopaminergic neurons in the substantia nigra to a level comparable to that of the control group not treated with MPTP”. For the same compound, the “protection of dopaminergic neurons in the corpus striatum, 30-day administration” value in experiment [3] (setting [10]) is “protected dopaminergic neurons to a level comparable to that of the control group not treated with MPTP”. Moreover, in experiment [3] (administration for 30 days, substantia nigra, FIG. 2c), the “protection of dopaminergic neurons in the substantia nigra, 30-day administration” value is given as “protected neurons similarly to the control group”. In addition, the “overall efficacy in the three tests on the MPTP mouse model” value in experiment [3] (compared with selegiline and safinamide) was “superior efficacy as compared to selegiline and safinamide”. The “efficacy (spike probability) compared with safinamide” value in experiment [4] is reported as “higher than that of safinamide”. Moreover, the “spike probability depending on stimulus intensity” value in experiment [4] (FIG. 3b) is given as “superior efficacy was observed”. In addition, the half-maximal inhibitory concentration (IC50) in experiment [2] is above 500 µM. The excitability inhibitory effect entry in experiment [5] (10 μM) is given as “almost no inhibitory effect”; in experiment [5] (50 μM), “lower inhibitory effect than safinamide”. Besides, the Reversibility result in experiment [6] (1 μM) is “Reversible”. Also, the “Recovered MAO-B activity” value in experiment [6] (1 μM, after washing) was above 85%. The inhibition at 1 µM in experiment [6] (after centrifugal filter and washing with buffer (B), read-out: B. MAO-B inhibition effect) is below 15%; in experiment [6] (without washing (A), read-out: A. MAO-B inhibition effect), 82%. Also, the “body weight increase due to high-fat diet” value in experiment [7] (10 mg/kg/day and 100 mg/kg/day groups, FIG. 8) was “inhibited body weight increase due to the intake of the high-fat diet in a concentration-dependent manner”. In experiment [7] (high-fat diet mice, FIG. 8), the “amount of food intake” value is given as “no difference in the amount of food intake”. The “GFAP (biomarker for reactive astrocytes) in the arcuate nucleus” value in experiment [7] (high-fat diet mice, FIG. 9) is reported as “Remarkable decrease in GFAP”. For the same compound, the “overproduction of GABA in the arcuate nucleus” value in experiment [7] (high-fat diet mice, FIG. 9) is listed as “effective inhibition of the overproduction of GABA”.

Take `C[C@H](NCc1ccc(-c2cccc(OC(F)(F)F)c2)cc1)C(N)=O` [Example 10, (S)-2-(((3′-trifluoromethoxybiphenyl-4-yl)methyl)amino)propanamide methanesulfonate]: the 50% inhibitory concentration (IC50) in experiment [2] is above 100 µM; in experiment [1], 0.216 µM.

On to `C[C@H](NCc1ccc(-c2ccc(OC(F)(F)F)cc2)cc1)C(N)=O` [Example 11, (S)-2-(((4′-trifluoromethoxybiphenyl-4-yl)methyl)amino)propanamide methanesulfonate], for which the IC50 in experiment [2] was above 100 µM; in experiment [1], 0.098 µM.

For `COc1cccc(-c2ccc(CN[C@@H](C)C(N)=O)cc2)c1` [Example 12, (S)-2-(((3′-methoxybiphenyl-4-yl)methyl)amino)propanamide methanesulfonate], the IC50 in experiment [2] was above 100 µM; in experiment [1], 3.33 µM.

As to `COc1ccc(-c2ccc(CN[C@@H](C)C(N)=O)cc2)cc1` [Example 13, (S)-2-(((4′-methoxybiphenyl-4-yl)methyl)amino)propanamide methanesulfonate], the IC50 in experiment [2] was above 100 µM; in experiment [1], 1.06 µM.

`C[C@@H](NCc1ccc(-c2cccc(F)c2)cc1)C(N)=O` [Example 14, methanesulfonate]: the results for the IC50 in experiment [2] and in experiment [1] were above 100 µM and above 10 µM, respectively.

As to `C[C@@H](NCc1ccc(-c2ccc(C(F)(F)F)cc2)cc1)C(N)=O` [Example 15, (R)-2-(((4′-trifluoromethylbiphenyl-4-yl)methyl)amino)propanamide methanesulfonate], the IC50 in experiment [2] is above 100 µM.

Take `NC(=O)CNCc1ccc(-c2ccc(C(F)(F)F)cc2)cc1` [Example 16, (R)-2-(((4′-trifluoromethylbiphenyl-4-yl)methyl)amino)acetamide methanesulfonate]: the IC50 in experiment [2] was above 100 µM; in experiment [1], 0.126 µM.

On to `CC(C)[C@@H](NCc1ccc(-c2ccc(C(F)(F)F)cc2)cc1)C(N)=O` [Example 17, (R)-3-methyl-2-(((4′-trifluoromethylbiphenyl-4-yl)methyl)amino)butanamide methanesulfonate], for which the IC50 in experiment [2] was above 100 µM; in experiment [1] it was 4.07 µM.

`CC(C)C[C@@H](NCc1ccc(-c2ccc(C(F)(F)F)cc2)cc1)C(N)=O` [Example 18, (R)-4-methyl-2-(((4′-trifluoromethylbiphenyl-4-yl)methyl)amino)pentanamide methanesulfonate]: the values for the IC50 in experiment [2] and in experiment [1] were above 100 µM and 5.3 µM, respectively.

In the case of `C[C@H](NCc1ccc(OCc2cccc(F)c2)cc1)C(N)=O` [S-Safinamide, Safinamide, reference compound], the “dopaminergic neuron survivability (TH expression), pre-treatment” value in experiment [3] (10 mg/kg oral) is on record as “dopaminergic neuron survivability comparable to that of the control group”. Further, the “death of dopaminergic neurons, post-treatment” value in experiment [3] (setting [9]) is “significantly decreased death of the neurons”. In addition, in experiment [3] (setting [10]), the “protection of dopaminergic neurons in the corpus striatum, 30-day administration” value is “slightly lower efficacy”. Further, the “efficacy in the Alzheimer's disease model after 2 weeks” value in experiment [8] is “maintains excellent efficacy”. For the same compound, the inhibition at 10 µM in experiment [5] (10 μM, read-out: excitability inhibitory effect) was around 40%.

On to `C#CCN(C)[C@H](C)Cc1ccccc1` [Selegiline], for which, in experiment [8], the “efficacy in the Alzheimer's disease model after 2 weeks” value is on record as “the efficacy decreases greatly”. In addition, the “efficacy in the Alzheimer's disease model after 4 weeks” value in experiment [8] (after 4 weeks) is given as “no efficacy is observed”. In experiment [8] (initial), the “efficacy in the Alzheimer's disease model, initially” value is on record as “excellent efficacy initially”.
